Where two headings read alike, the source gives them in different places.
Columns and labels:
COLO 205 cell line = test: in-vitro activity of ansamitocin derivatives; format: cell-based, human; conditions: 96 hour exposure; read-out: IC50 against COLO 205 cell line
Protocol: (§1) All reagents were purchased from the Aldrich Chemical Co., New Jersey, or other commercial sources. Maytansinol (11) was prepared as described previously (U.S. Pat. No. 6,333,410). Nuclear Magnetic Resonance (^1H NMR) spectra were acquired on a Bruker 400 MHz instrument and mass spectra were acquired on a Bruker Daltonics Esquire 3000 instrument using electrospray ionization. In vitro cytotoxicity assays are performed as previously described (see U.S. Pat. No. 7,276,497 and W. C. Widdison et al., J. Med. Chem., 2006, 49, 4392-4408).
(§2) The KB (ATCC CCl-17) cell line is of human epithelial origin. The SK-BR-3 (ATCC HTB-30) cell line was established from a human breast adenocarcinoma. The human colon tumor cell lines COLO 205 (ATCC CCL-222) and HT-29 (ATCC HTB 38), the human melanoma cell line A-375 (ATCC CRL 1619), the human Burkitts lymphoma cell line Ramos (ATCC CRL-1596) and the human myeloid leukemia cell line HL-60 (ATCC CCL-240) were all obtained from ATCC, Maryland. Cell lines were grown in Dulbecco's modified Eagles Medium (DMEM, Biowhittaker, Walkersville, Md.) with L-glutamine supplemented with 10% fetal bovine serum (Hyclone, Logan, Utah) and 50 μg/mL gentamycin sulfate (Life Technologies, Rockville, Md.). Cells were maintained at 36-37.5° C. in a humidified atmosphere that contained 6% CO2.

SK-Br-3 cells = test: clonogenic in vitro cytotoxicity assay; format: cell-based, human; conditions: for IC50: read-out: IC50 towards SK-Br-3 cells
Protocol: as §2
(§3) The cytotoxicity study was performed using a clonogenic assay. The test cell lines (KB and SK-Br-3) were plated into 6-well culture dishes at a constant number of 1000 cells per well. Cells were incubated with varying concentrations (0 to 3 nM) of the various ansamitocins or maytansine for 72 hours. The medium was then aspirated from the plates and replaced with fresh medium. Cultures were allowed to grow, and form colonies, for a total of 7-10 days after plating. The cultures were then fixed and stained with 0.2% crystal violet in 10% formalin/PBS and colonies were counted. Plating efficiency of non-treated cells (medium alone) was determined by dividing the number of colonies counted by the number of cells plated. Surviving fraction of cells exposed to the drugs was determined by dividing the number of colonies in wells that were exposed to the drug by the number of colonies in the control wells.

KB cells [1] = test: clonogenic in vitro cytotoxicity assay; format: cell-based, human; conditions: 72 hours incubation
Protocol: as §2, §3

KB cells [2] = conditions: literature report, cited from earlier work
COLO 205-MDR cell line = test: in-vitro activity of ansamitocin derivatives; format: cell-based, human; conditions: 96 hour exposure; read-out: IC50 against COLO 205-MDR cell line
Protocol: as §1

KB cell line = test: in-vitro activity of ansamitocin derivatives; format: cell-based, human
Excerpt: The in vitro cytotoxicity of ansamitocin derivatives of the present invention can be measured by methods previously disclosed (U.S. Pat. No. 7,276,497 and Widdison et al., J. Med. Chem., 49; 4392, 2006, both expressly incorporated herein by reference). For example, cell lines such as the human breast carcinoma line SK-Br-3, or the human epidermoid carcinoma cell line KB, can be used for the assessment of cytotoxicity of these new ansamitocin derivatives. Cells to be evaluated are exposed to the compounds for 72 hours and the surviving fractions of cells measured in direct assays by known methods. IC50 values are calculated from the results of the assays.
as §1
The KB (ATCC CCl-17) cell line is of human epithelial origin. The SK-BR-3 (ATCC HTB-30) cell line was established from a human breast adenocarcinoma. […]

[3] = system: L1210 mouse leukemia system; conditions: literature report; cited from earlier work
L1210 cells = L1210 cells treated in vivo; untreated control 3.2 to 5.8%; cited from earlier work
[4] = system: human acute lymphoblastic leukemia line CEM; conditions: literature report; cited from earlier work
[5] = system: human nasopharyngeal carcinoma cells; conditions: literature report; cited from earlier work

Question: With COc1cc2cc(c1Cl)N(C)C(=O)C[C@H](OC(=O)CCCCCSSC)[C@]1(C)O[C@H]1[C@H](C)[C@@H]1C[C@@](O)(NC(=O)O1)[C@H](OC)/C=C/C=C(\C)C2 [compound 54, 6-(methyldithio)hexanoic acid ester of maytansinol] as the compound, how does the IC50 (COLO 205 cell line) read?
Answer: The IC50 was 0.31 nM.

Question: With CCCCC(=O)O[C@H]1CC(=O)N(C)c2cc(cc(OC)c2Cl)C/C(C)=C/C=C/[C@@H](OC)[C@@]2(O)C[C@H](OC(=O)N2)[C@@H](C)[C@@H]2O[C@@]12C [ansamitocin P4′] as the compound, how does the “fold more potent than maytansine towards SK-Br-3 cells” value (SK-Br-3 cells; 72 hours incubation) read?
Answer: The value was 17 fold.

Question: And the IC50 (SK-Br-3 cells; 72 hours incubation)?
Answer: The IC50 was 0.002 nM.

Question: What does the source list for CCC(=O)O[C@H]1CC(=O)N(C)c2cc(cc(OC)c2Cl)C/C(C)=C/C=C/[C@@H](OC)[C@@]2(O)C[C@H](OC(=O)N2)[C@@H](C)[C@@H]2O[C@@]12C [ansamitocin bearing a C3 propionyl ester]?
Answer: fold more potent than maytansine towards KB cells (KB cells [1]): 1.3 fold; fold less potent than maytansine (Kupchan et al.) (KB cells [2]; KB cells): about 34.4 fold

Question: Which IC50 (COLO 205 cell line) does the source give for COc1cc2cc(c1Cl)N(C)C(=O)C[C@H](OC(=O)c1ccc(CSSC)cc1)[C@]1(C)O[C@H]1[C@H](C)[C@@H]1C[C@@](O)(NC(=O)O1)[C@H](OC)/C=C/C=C(\C)C2 [compound 59, 4-((methyldisulfanyl)methyl)benzoic acid ester of maytansinol] here?
Answer: The IC50 was 0.53 nM.

Question: Which IC50 (COLO 205-MDR cell line) does the source give for COc1cc2cc(c1Cl)N(C)C(=O)C[C@H](OC(=O)CCCN(C)C)[C@]1(C)O[C@H]1[C@H](C)[C@@H]1C[C@@](O)(NC(=O)O1)[C@H](OC)/C=C/C=C(\C)C2 [compound 66, Dimethylamino Butyric Acid Ester of Maytansinol] here?
Answer: The IC50 was > 20 nM.

Question: What about the IC50 (COLO 205 cell line) of the same compound?
Answer: Its IC50 is 11 to 12 nM.

Question: What about the IC50 (KB cell line; 96 hour exposure, read-out: IC50 against the KB cell line) of the same compound?
Answer: The IC50 was 11 to 12 nM.

Question: For COc1cc2cc(c1Cl)N(C)C(=O)CC(OC(=O)CCCCC(=O)O)C1(C)OC1C(C)C1CC(O)(NC(=O)O1)C(OC)C=CC=C(C)C2 (stereo not drawn) [14b, Hexanedioic Acid Ester of Maytansinol], which “fold reduction in activity compared to the TMS-protected precursor 14a” value (KB cell line; KB cell line) is on record?
Answer: Its value is 15 fold.

Question: With COc1cc2cc(c1Cl)N(C)C(=O)C[C@H](OC(=O)[C@H](C)N(C)C(C)=O)[C@]1(C)O[C@H]1[C@H](C)[C@@H]1C[C@@](O)(NC(=O)O1)[C@H](OC)/C=C/C=C(\C)C2 [maytansine, N-acetyl-N-methyl-L-alanyl ester of maytansinol] as the compound, how does the “inhibitory activity in vivo” value [3] read?
Answer: The value was “significant inhibitory activity”.

Question: And the IC50 (SK-Br-3 cells; Homo sapiens, SK-BR-3, 72 hours incubation)?
Answer: The IC50 was 0.034 nM.

Question: What about the “cells accumulating in mitosis” value (L1210 cells) of the same compound?
Answer: Its value is 67%.

Question: And the “IC50 towards cancer cells (Kupchan et al.)” value (KB cells [2])?
Answer: Its value is 0.0000061 micrograms/mL.

Question: What about the “inhibitory concentration, CEM line” value [4] of the same compound?
Answer: Its value is ≥ 10^−7 mg/ml.

Question: And the “inhibition of in vitro growth of human nasopharyngeal carcinoma cells” value [5]?
Answer: The value was “active inhibitor”.

Question: Which results are given for COc1cc2cc(c1Cl)N(C)C(=O)C[C@H](OC(=O)CCCCC(=O)OCC[Si](C)(C)C)[C@]1(C)O[C@H]1[C@H](C)[C@@H]1C[C@@](O)(NC(=O)O1)[C@H](OC)/C=C/C=C(\C)C2 [14a]?
Answer: IC50 (COLO 205-MDR cell line): 4.8 nM; IC50 (COLO 205 cell line): 0.4 nM

— US9090629B2, “Cytotoxic agents comprising new ansamitocin derivatives” (ImmunoGen, Inc., priority 2010, dated 2015)
